# Measured values from US20260167614A1, “IDENTIFICATION OF SMALL MOLECULES THAT RECRUIT AND ACTIVATE RNASE L” (UNIVERSITY OF FLORIDA RESEARCH FOUNDATION, INCORPORATED, priority 2022, published 2026).
# Key:
# [1] = test system: pre-miR-21; assay: In vitro C-Chem-CLIP; assay type: binding; conditions: 32P-labeled pre-miR-21; 8 at 5 μM; 7 at 1, 5, 20 or 100 μM
# Procedure: Direct target occupancy was further verified using C-Chem-CLIP. In this assay, the RNA-binding module was conjugated to a diazirine cross-linking module and an alkyne handle for purification, affording Chem-CLIP probe 8 (FIG. 8A).^18 Radioactively labeled pre-miR-21 was incubated with a constant concentration of 8 and increasing amounts of 7. After cross-linking by irradiation with UV light, the amount of pre-miR-21 pulled down by 8 was measured by its radioactive signal. If the two compounds (7 and 8) share the same binding site, the amount of pre-miR-21 in the pulled down fraction is depleted.
# In Vitro C-Chem-CLIP. Growth medium (RPMI 1640 medium supplemented with 300 mg/L Lglutamine & 25 mM HEPES; Corning, catalog #10-041-CV)] was inactivated by heating to 95° C. for 10 min followed by slowly cooling to room temperature. […]
# Copper-catalyzed click chemistry^10 was used to click the probes in each sample to biotinazide (1265-5, Click Chemistry Tools). […] Radioactive signal from both the bound RNA on the magnetic beads and the unbound RNA in the wash solutions were measured using a Beckman […] Coulter LS6500 Liquid Scintillation Counter. The percentage pulldown by Chem-CLIP probe was calculated according to equation 2: […]
# [2] = test system: mature miR-21; assay: RT-qPCR of mature miR-21 in CRISPR-Control sgRNA MDA-MB-231 cells; assay type: cell-based; conditions: 5 μM, 48 h treatment, RNase L expressed
# Procedure: (§1) Two CRISPR-modified MDA-MB-231 cell lines with either a scrambled control guide RNA (“Control sgRNA”; RNase L is expressed) or with an RNase L-targeting guide RNA (“RNase L-Targeting sgRNA”; RNase L protein abundance is knocked down) were used to complete these studies.
# (§2) MDA-MB-231 cells were treated with compound (0.1% DMSO final concentration) for 24 h, followed by removal of the compound-containing medium and redosing in growth medium for an additional 24 h (total treatment period of 48 h), with the exception of invasion assays in which the cells were treated overnight. For the time-course experiment, MDA-MB-231 cells were treated for the indicated lengths of time. MCF-10A cells, also used in invasion assays, were treated with compound overnight (0.1% DMSO final concentration).
# (§3) RNA Isolation and Quantitative Real-Time Polymerase Chain Reaction (RT-qPCR). MDAMB-231 cells were cultured as described in “Cell Culture.” After compound treatment, total RNA was extracted using a Quick-RNA Miniprep Kit (Zymo) per the manufacturer's instructions. […] RT-qPCR was performed on a QuantStudio5™ Real-Time PCR Instrument (Applied Biosystems) using Power SYBR Green Master Mix (Applied Biosystems), and the resulting data were analyzed using the ΔΔCt method.
# [3] = test system: pre-miR-21; assay: RT-qPCR of pre-miR-21 in CRISPR-Control sgRNA MDA-MB-231 cells; assay type: cell-based; conditions: 5 μM
# Procedure: as §1, §2, §3
# [4] = test system: miR-21; assay: Global miRNA profiling in MDA-MB-231 cells; assay type: cell-based; conditions: 377 miRNAs
# Procedure: as §1
# For global miRNA profiling experiments, RT was completed using 2 μg total RNA and a Mir-X miRNA First Strand Synthesis Kit (Takara) in a total volume of 20 μL. The RT reaction was then plated into the wells of a 384-well qPCR plate containing pre-diluted forward and reverse primers for the miRNA of interest. RT-qPCR was performed on a QuantStudio5™ Real-Time PCR Instrument (Applied Biosystems) using Power SYBR Green Master Mix (Applied Biosystems). Data were analyzed using the ΔΔCt method,^11 followed by calculation of log 2 fold changes and −log 10 p-values. The software Perseus was used to calculate the false discovery rate (FDR) of 1% with a group variance of S0(0.1).
# [5] = test system: MCF-10A cells; assay: Boyden chamber invasion assay, MCF-10A with mutant pre-miR-21; assay type: cell-based; conditions: Dovitinib-binding site mutated
# Procedure: The effect of the RiboTAC on a miR-21-associated invasive phenotype was next assessed. Treatment with 5 μM of 7 reduced the invasiveness of MDA-MB-231 cells, by ˜30% (p<0.05) (FIG. 4E-F). […] While forced expression of a mutant pre-miR-21 in which the Dovitinib-binding site is mutated also produced an invasive phenotype, the cells were insensitive to treatment with 7 (FIG. 12).
# MCF-10A cells were first transfected with either a plasmid expressing pre-miR-21 (Addgene; catalog #21114) or a plasmid encoding a pre-miR-21 mutant (custom purchased from GenScript USA, Inc, FIG. 8) using jetPRIME (Polyplus), per the manufacturer's protocol (3.2 μg of plasmid per 60 mm dish). After transfection, cells (50,000 per insert) were seeded into the hanging inserts in serum free growth medium, with or without compound (0.1% final DMSO concentration). The assay was then completed as described for the MDA-MB-231 cells.
compound,measurement,setting,value
"CNC(=O)[C@H](c1ccccc1)N(C)Cc1ccc(-c2cccc(-c3sccc3NC(=O)CCOCCOCCOCCC(=O)NCCN3CCN(c4ccc5nc(-c6c(N)c7c(F)cccc7[nH]c6=O)[nH]c5c4)CC3)c2)cc1 [RiboTAC 7, (S)—N-(2-(4-(2-(4-amino-5-fluoro-2-oxo-1,2-dihydroquinolin-3-yl)-1H-benzo[d]imidazol-6-yl)piperazin-1-yl)ethyl)-3-(2-(2-(3-((2-(4′-((methyl(2-(methylamino)-2-oxo-1-phenylethyl)amino)methyl)-[1,1′-biphenyl]-3-yl)thiophen-3-yl)amino)-3-oxopropoxy)ethoxy)ethoxy)propanamide]",amount of pre-miR-21 cross-linked to Chem-CLIP probe 8 in competition,[1],dose-dependently reduced the amount of pre-miR-21 cross-linked to 8
same,reduction of mature miR-21 abundance,[2],~40%
same,reduction of pre-miR-21 abundance,"[3]; 48 h treatment, RNase L expressed",~30%
same,treatment time at which pre-miR-21 degradation is first detectable,[3]; time-course,48 h
same,miRNA profiling selectivity,[4],selectively down-regulated miR-21 across the transcriptome
same,invasive phenotype induced by forced expression of mutant pre-miR-21,[5],insensitive
